In patent US5573923A, “Method for removing N-terminal dipeptides from precursor polypeptides with immobilized dipeptidylaminopeptidase from dictyostelium discoideum” (Eli Lilly and Company, priority 1993, dated 1996):
Residues, ends and D or L forms follow the SMILES beside them. *: point of attachment. pNA = O=[N+]([O-])c1ccc(N*)cc1; AMC = Cc1cc(=O)oc2cc(N*)ccc12; βNA = c1ccc2cc(N*)ccc2c1; Cbz = O=C(OCc1ccccc1)*

Legend:
[1] = system: dDAP; test: pH dependence of substrate cleavage by dDAP; assay type: biochemical, Dictyostelium discoideum; conditions: unbound dDAP
Description: The pH optima for the GFpNA cleaving ability of dDAP was determined by adjusting a buffer consisting of 0.5M Tris®, phosphate and citrate with 10% HCl or 10% NaOH to various pHs within the range of 3 to 8. dDAP enzyme was diluted 20-fold in a buffer containing 100 mM cysteamine and 10 mM NaCl. Bovine DAP-I was diluted 200-fold in the same buffer. A GFpNA substrate solution (4 mM) was prepared in 2% dimethylformamide. In a microtiter plate, 0.025 ml of the Tris/phosphate/citrate buffer of various pH's was combined with 0.1 ml of diluted enzyme and with 0.1 ml of substrate solution. The rate of increase of absorbance at 410 nm was determined on a plate-reader over a 30 minute period.
Four mM GRpNA was prepared in 50 mM acetic acid, 50 mM glycine buffer, pH 5. HCl or NaOH was used to achieve a variety of pHs, from 5.1 to 2.3. To 180 ul of the above pH buffered substrate was added 5 ul dDAP (49 milliunits/ml final). The rate of increase of absorbance at 410 nm was monitored (using a plate-reader) and the rate of increase was compared with the pH of the reaction solution.
(§1) About 0.25 mM RRBNA or 0.25 mM Z-RRBNA was prepared in either 100 mM acetic acid, pH 3.5, or 100 mM citrate buffer, pH 5.0. To 2 ml of substrate was added dDAP or bovine DAP-I (about 15 milliunit/ml solution). Rates of cleavage (monitoring fluorescence increase at 410 nm with excitation at 340 nm) were monitored. […] The pH optimum for cleavage of RRBNA was probed by monitoring the rate of RRBNA cleavage using a buffer system consisting of 50 mM acetic acid and 50 mM citrate. Various pHs were achieved using HCl or NaOH and 1.5 ml volumes were made 2.0 with 0.5 ml of a 1 mM stock solution of RRBNA (final concentration of about 0.25 mM). dDAP was added (to about 15 mU/ml) and the rates of cleavage were determined.
The skilled artisan will recognize that the optimum pH for cleavage of a substrate not only depends upon the enzyme but the substrate itself, that is, the constitution of the removed dipeptide as well as the indicator group itself.

[2] = system: dDAP; test: Cleavage of RRBNA and Z-RRBNA (fluorescence increase); assay type: biochemical, Dictyostelium discoideum; conditions: about 0.25 mM substrate, pH 3.5 or pH 5.0, about 15 milliunit/ml enzyme
Description: as §1

[3] = molecular target: T1, bovine DAP-I (Bos taurus, UniProt Q3ZCJ8); test: as above; assay type: biochemical; conditions: about 0.25 mM substrate, pH 3.5 or pH 5.0, about 15 milliunit/ml enzyme
T1 construct: bovine spleen DAP-I; from tissue; host or cells: bovine spleen
Description: as §1

[4] = molecular target: T2, bovine spleen DAP-I (Bos taurus, UniProt Q3ZCJ8); test: Inhibition of GFpNA cleavage by sulfhydryl modifying agents; assay type: biochemical; conditions: 5 mM inhibitor, 15 minutes at room temperature, pH 7; then 4 mM GFpNA, pH 3.5, 37° C.; read-out: decrease (inhibition) of rate of cleavage of GFpNA
T2 construct: bovine spleen DAP-I; from tissue; host or cells: bovine spleen
Description: (§2) After purification or storage, dDAP enzymatic activity was usually monitored by following the cleavage of the chromogenic substrate GFpNA. Typically the assay was performed by diluting the enzyme at least 11 fold into 1.0 ml of 4 mM GFpNA in 0.05M acetic acid adjusted to pH 3.5. The rate of cleavage of Gly-Phe dipeptide was monitored at 37° C. by measuring the increase in absorbance at 405 nm. One unit of activity leads to a 0.90 OD change per minute under these conditions. Unit/ml estimates can be made assuming an extinction coefficient for free p-nitroanilide (pNA) of 9.9 mM-1 cm-1 at 405 nm.
(§3) The inhibition profile of dDAP toward the substrate GFpNA was compared to that of bovine spleen DAP-I using iodoacetamide and potassium tetrathionate, sulfhydryl modifying agents known to inhibit the activity of bovine spleen DAP-I. Samples of dDAP or bovine spleen DAP-I were incubated for 15 minutes at room temperature in final concentrations of 0, 0.5, 5.0 or 50 mM of either inhibitor at pH 7 in 100 mM Tris buffer. The incubated solutions were then diluted 21-fold with 4 mM GFpNA, pH 3.5. The rate of cleavage was monitored by measuring the increase in absorbance at 405 nm at 37° C. Bovine DAP-I's rate of cleavage of GFpNA was decreased more than 90% by the exposure to 5 mM iodoacetamide and was 95% inhibited by 5 mM potassium tetrathionate.

[5] = system: dDAP; test: as above; assay type: biochemical, Dictyostelium discoideum; conditions: 0.5, 5.0 or 50 mM inhibitor, 15 minutes at room temperature, pH 7; then 4 mM GFpNA, pH 3.5, 37° C.
Description: as §2, §3

T1 sequence (Q3ZCJ8 231-394 limits assumed): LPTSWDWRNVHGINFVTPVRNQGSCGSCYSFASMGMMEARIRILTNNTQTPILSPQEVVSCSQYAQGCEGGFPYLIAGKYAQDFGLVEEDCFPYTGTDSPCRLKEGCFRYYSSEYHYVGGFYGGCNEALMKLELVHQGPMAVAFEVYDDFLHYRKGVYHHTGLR
T1 sequence (Q3ZCJ8 395-463 limits assumed): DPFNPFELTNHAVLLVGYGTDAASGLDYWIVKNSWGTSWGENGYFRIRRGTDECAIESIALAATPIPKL
T1 sequence (Q3ZCJ8 25-143 limits assumed): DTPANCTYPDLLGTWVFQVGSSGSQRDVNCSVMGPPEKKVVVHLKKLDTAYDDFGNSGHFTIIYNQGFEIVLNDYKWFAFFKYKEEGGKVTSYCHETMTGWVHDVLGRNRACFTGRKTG
T2 sequence (Q3ZCJ8 231-394 limits assumed): as the sequence (Q3ZCJ8 231-394 limits assumed) above
T2 sequence (Q3ZCJ8 395-463 limits assumed): as the sequence (Q3ZCJ8 395-463 limits assumed) above
T2 sequence (Q3ZCJ8 25-143 limits assumed): as the sequence (Q3ZCJ8 25-143 limits assumed) above

`NCC(=O)N[C@@H](Cc1ccccc1)C(=O)Nc1ccc([N+](=O)[O-])cc1` [GFpNA, Gly-Phe p-nitroanilide] (H-Gly-Phe-pNA) was tested. Which “pH optimum for cleavage of the substrate” value [1] did it give?
Its value is ~3.5 pH.

How did the “activity over the pH range” value [1] turn out when `N=C(N)NCCC[C@H](NC(=O)CN)C(=O)Nc1ccc([N+](=O)[O-])cc1` [GRpNA, Gly-Arg-pNA] (H-Gly-Arg-pNA) was run?
Its value is “little activity below pH 2.5 or above pH 5”.

What about the “pH optimum for cleavage of the substrate” value ([1]; listed as G1y-Arg-pNA) of the same compound?
Its value is ~3.5 pH.

With `Cc1cc(=O)oc2cc(NC(=O)[C@H](CCCNC(=N)N)NC(=O)CN)ccc12` [Gly-Arg-7-amido-4-methylcoumarin] (H-Gly-Arg-{AMC}) as the compound, how does the “pH optimum for cleavage of the substrate” value [1] read?
Its value is ~5 pH.

Which results are given for `N=C(N)NCCC[C@H](NC(=O)[C@@H](N)CCCNC(=N)N)C(=O)Nc1ccc2ccccc2c1` [RRBNA, Arg-Arg-β-naphthylamide] (H-Arg-Arg-βNA)?
cleavage of substrate [2]: able to effectively cleave; cleavage of substrate [3]: unable to cleave; activity over the pH range [1]: significant activity seen over the entire range probed (pH 3.5 to pH 5.7)

Which cleavage of substrate [2] does the source give for `N=C(N)NCCC[C@H](NC(=O)OCc1ccccc1)C(=O)N[C@@H](CCCNC(=N)N)C(=O)Nc1ccc2ccccc2c1` [Z-RRBNA, Benzyioxycarbonyl-RRBNA] (Cbz-Arg-Arg-βNA) here?
Its cleavage of substrate is “unable to cleave”.

What about the cleavage of substrate [3] of the same compound?
The cleavage of substrate was “unable to cleave”.

For `NC(=O)CI` [iodoacetamide], which inhibition at 5000 µM [4] is on record?
The inhibition at 5000 µM was > 90%.

What about the “inhibition of GFpNA cleavage” value [5] of the same compound?
The value was “no evidence of significant inhibition”.

Which “inhibition of GFpNA cleavage” value [5] does the source give for `O=S(=O)([O-])SSS(=O)(=O)[O-].[K+].[K+]` [potassium tetrathionate] here?
The value was “no evidence of significant inhibition”.
